How the values were obtained:
chloroquine-induced itch = chloroquine-induced itch (cheek injection) in wild-type mice; format: in vivo, wild-type C57BL6/J mice; settings: p.o.; wild-type mice; 100 μg chloroquine
Experimental: (§1) Acute itch was assessed in mice that received intradermal microinjections of pruritogens or 0.9% saline into the right cheek, which had been shaved at least one day before the experiment. In two sets of experiments that addressed the contribution of GABAARs in primary and secondary pruritoceptors, pruritogens were injected in the right thigh (FIG. 17). Before injection, mice were acclimatized to a 15 cm diameter cylindrical enclosure for more than 30 min with cage bedding on the ground. Background white noise generated by a radio in the room at ambient volume was applied to prevent auditory distraction. A 30 gauge needle was inserted bevel-up and pushed 5 mm horizontally into the skin beyond the point of insertion, before injection of the pruritogen (in a total volume of 10 μl). No anesthesia was used. Correct injection was confirmed by the appearance of a slightly domed bulla upon injection. […] Videos were analyzed off-line. Scratching of the hind paw directed to the ipsilateral cheek was counted in bouts, with one scratching bout defined as an instance when the mouse lifted its paw to scratch until it returned the paw to the cage floor. In case of experiments in which the pruritogen was injected in the skin of the thigh, the time spent biting the injected skin area was counted in s/min as a measure of itch.

α-Me-5HT-induced itch = test: α-methyl 5-HT-induced itch (cheek injection) in wild-type mice; format: in vivo, wild-type mice (129X1/SvJ); settings: 1 mg/kg p.o.; 20 μg α-methyl 5-HT
[1] = test system: benzodiazepine binding site of GABAARs; test: α-methyl 5-HT-induced itch in HRRR mice (α2, α3, α5 GABAARs benzodiazepine-insensitive); format: in vivo; settings: 1 mg/kg p.o.; 20 μg α-methyl 5-HT
Experimental: as §1

locomotor activity = test: open field test, locomotor activity / sedation; format: in vivo, wild-type mice
Experimental: After injection, the mice were placed in an open field arena and their activity was recorded for one hour starting one hour after injection.
Locomotor activity, muscle relaxant effects and motor coordination were assessed as described previously (Ralvenius, W. T., Benke, D., Acuña, M. A., Rudolph, U. & Zeilhofer, H. U. Nature Communications, 2015, 6). […] Motor coordination was assessed with a rotarod accelerating from 4 rpm to 40 rpm within 5 min. […] Fifteen measurements were taken per mouse. To assess muscle relaxation, mice were placed with their forepaws onto a metal horizontal wire placed 20 cm above ground.

α3 GABAARs = target: T1, α3 GABAARs (Homo sapiens, UniProt P18507+P34903); test: GABA-evoked currents, recombinant GABAARs in HEK293 cells (α3); format: cell-based; settings: HEK293 cells transiently transfected
T1 construct: expressed in transfected cells; host or cells: HEK293 cells (ATCC), transient transfection
T1 sequence (P34903 29-492): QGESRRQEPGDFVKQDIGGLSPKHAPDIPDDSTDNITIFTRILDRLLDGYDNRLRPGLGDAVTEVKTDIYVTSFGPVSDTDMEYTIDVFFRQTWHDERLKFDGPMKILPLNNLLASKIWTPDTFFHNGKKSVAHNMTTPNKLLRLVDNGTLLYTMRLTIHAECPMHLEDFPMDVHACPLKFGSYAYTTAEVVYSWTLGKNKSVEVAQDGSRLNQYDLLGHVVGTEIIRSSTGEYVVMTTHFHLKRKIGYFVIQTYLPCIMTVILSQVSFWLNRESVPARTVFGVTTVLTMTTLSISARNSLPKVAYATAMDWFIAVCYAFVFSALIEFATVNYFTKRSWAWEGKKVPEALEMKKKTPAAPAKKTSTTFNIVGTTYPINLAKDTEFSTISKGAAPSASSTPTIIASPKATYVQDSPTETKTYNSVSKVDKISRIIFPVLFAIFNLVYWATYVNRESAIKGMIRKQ
T1 sequence (P28472 26-473 partner): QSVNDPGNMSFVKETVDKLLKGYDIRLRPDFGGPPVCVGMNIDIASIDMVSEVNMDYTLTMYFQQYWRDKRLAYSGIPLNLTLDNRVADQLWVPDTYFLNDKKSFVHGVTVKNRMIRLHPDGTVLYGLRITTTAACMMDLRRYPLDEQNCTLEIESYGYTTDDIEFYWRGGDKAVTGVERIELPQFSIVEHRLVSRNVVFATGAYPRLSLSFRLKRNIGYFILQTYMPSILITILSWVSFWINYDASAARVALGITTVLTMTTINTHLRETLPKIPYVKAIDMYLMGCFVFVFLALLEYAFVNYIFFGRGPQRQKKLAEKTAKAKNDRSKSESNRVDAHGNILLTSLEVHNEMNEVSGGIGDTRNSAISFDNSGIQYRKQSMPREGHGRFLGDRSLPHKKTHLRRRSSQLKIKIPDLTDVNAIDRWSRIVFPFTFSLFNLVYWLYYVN
T1 sequence (P18507 40-467 limits assumed): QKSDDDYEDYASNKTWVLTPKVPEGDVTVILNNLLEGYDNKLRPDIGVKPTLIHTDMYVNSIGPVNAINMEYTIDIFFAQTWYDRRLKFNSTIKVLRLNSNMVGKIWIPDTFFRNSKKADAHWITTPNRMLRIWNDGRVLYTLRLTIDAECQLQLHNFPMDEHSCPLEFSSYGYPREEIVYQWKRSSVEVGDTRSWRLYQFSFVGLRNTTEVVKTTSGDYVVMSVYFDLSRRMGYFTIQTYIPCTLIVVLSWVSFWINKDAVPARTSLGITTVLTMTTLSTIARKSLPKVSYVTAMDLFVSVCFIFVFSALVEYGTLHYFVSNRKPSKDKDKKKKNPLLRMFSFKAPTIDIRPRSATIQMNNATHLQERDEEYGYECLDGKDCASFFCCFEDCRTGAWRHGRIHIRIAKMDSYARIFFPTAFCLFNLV
From the text: (§2) HEK293 cells were transfected using lipofectamine LTX (Dugue, G. P., et al. Neuron, 2009, 61, 126-139). To ensure expression of the γ2 subunit (required for modulation of GABAARs by BDZs) in all recorded cells, the inventors transfected cells with a plasmid expressing the γ2 subunit plus eGFP from an IRES, and only selected eGFP-positive cells for recordings. The transfection mixture contained (in μg): 1 α1, 1 β2, 3 γ2/eGFP (used as a marker of successful transfection) or 1 αx, 1 β3, 3 γ2/eGFP in case of α2, α3, or α5GABAARs. Recordings were made 18-36 hrs after transfection. Whole-cell patch-clamp recordings of GABA-evoked currents were made at room temperature (20-24° C.) and at a holding potential of −60 mV. Recording electrodes were filled with solution containing (in mM): 120 CsCl, 10 EGTA, 10 HEPES (pH 7.40), 4 MgCl2, 0.5 GTP and 2 ATP. The external solution contained (in mM): 150 NaCl, 10 KCl, 2.0 CaCl2, 1.0 MgCl2, 10 HEPES (pH 7.4), and 10 glucose. GABA was applied to the recorded cell using a manually controlled pulse (4-6 s) of a low sub-saturating GABA concentration (ECS). ECs values of GABA were determined for all subunit combinations analyzed. […] Imax was determined as the average maximal current elicited by a concentration of 1 mM GABA. […]

α5GABAARs = test: GABA-evoked currents, recombinant GABAARs in HEK293 cells (α5); format: cell-based; settings: HEK293 cells transiently transfected
From the text: as §2

[2] = test system: GABA-IPSCs in GRP neurons; test: GABAergic IPSCs in GRP neurons, whole-cell recordings in spinal cord slices; format: cell-based, GRP::eGFP mice; settings: 1 μM; n=7
Experimental: Transverse spinal cord slices ([…]) were prepared from 20 to 29-day old GRP::eGFP mice of either sex as described previously (Dugue, G. P., et al. Neuron, 2009, 61, 126-139). Whole-cell patch clamp recordings were made at room temperature targeting eGFP positive neurons. During recordings, slices were continuously superfused at the rate of 1-2 ml/min with aSCF containing (in mM): 120 NaCl, 2.5 KCl, 1.25 NaH2PO4, 26 […], 5 HEPES, 1 MgCl2, 2 CaCl2) and 14.6 glucose (pH 7.4), equilibrated with 95% O2, 5% CO2. Recorded neurons were voltage clamped at −70 mV using an EPC 9 amplifier (HEKA Elektronic, Lambrecht, Germany) controlled with Patchmaster acquisition software. […] IPSCs were evoked by electrical stimulation (300 μs, 0.2-50 V) at 0.05 Hz using glass electrode filled with aCSF and placed 50-100 μm from the soma of the recorded cell. […] At the end of the recordings bicuculline (10 μM) was added to confirm the GABAergic nature of the recorded IPCSs. The weighted decay time constant (τw) was calculated from dual-exponential fits using the following equation: Tw=(τ1A1+τ2A2)/(A1+A2) where τ1 and τ2 are the fast and the slow decay time constants and A1 and A2 are the equivalent amplitude weighting factors (Labrakakis, C., Lorenzo, L. E., Bories, C., Ribeiro-da-Silva, A. & De Koninck, Y Mol Pain, 2009, 5, 24). […]

CC(C)(O)c1cnn2c(-c3ccc(F)c(-c4c(F)cccc4C#N)c3)cnc2n1 [TPA023B, 6,2′-difluoro-5′-[3-(1-hydroxy-1-methylethyl)imidazo[1,2-b][1,2,4]triazin-7-yl]biphenyl-2-carbonitrile]
doses at which chloroquine-induced scratching behavior was reduced (chloroquine-induced itch): 0.03 mg/kg | antipruritic action in wild-type mice (α-Me-5HT-induced itch): strong antipruritic actions | antipruritic action in HRRR mice [1]: completely lost its antipruritic action | locomotor activity in the open field test (locomotor activity; 1 and 3 mg/kg p.o.): increased locomotor activity | sedative effects (locomotor activity; doses up to 3 mg/kg (p.o.)): did not show sedative effects | activity in open field arena vs vehicle (locomotor activity; per oral 10 mg/kg and 30 mg/kg, recorded 1-2 h after injection): significant increase in activity | activity at the benzodiazepine binding site (potentiation of GABA-induced currents) (α3 GABAARs): partial agonistic activity | potentiation of GABA-induced currents (α5GABAARs): only very weak potentiating effects | amplitude of GABA-IPSCs [2]: did not affect the amplitude | prolongation of the decay of GABA-IPSCs [2]: 43±10%
